Data reported in patent US10179355B2, “Bioremediation enhancing agents and methods of use” (JRW BIOREMEDIATION, LLC, priority 2007, dated 2019).

System: dechlorinating bacteria known to convert PCE to ethene
Assay: Set A: Ladder of YM, PCE dechlorination microcosms (kinetics, Relative Rate, paired t-test)
Type: cell-based, Dehalococcoides and Dehalobacter spp.
Text: Certain contaminated materials (or sites) may contain indigenous microbial communities that are sufficient for complete bioremediation of contaminants. For such sites, there is no need to add microbes unless the indigenous microbes are genetically deficient in achieving the desired clean-up goals. For those sites that are microbiologically limited, microorganisms may be added to the contaminated materials (or sites). In one embodiment, the inoculum may be a mixed culture of halo-respiring bacteria that have been enriched to reach an optimal cell density. These mixed cultures of halo-respiring bacteria may be typically obtained from sediment samples from rivers, streams or any waterways. More specifically, the inoculum used in the Examples was originated from a Sangamon River sediment sample (Lodge Park, Piatt County, Ill.) See, e.g., Brennan, R. A., Sanford, R. A. and Werth, C. J. (2006). “Biodegradation of Tetrachloroethene by Chitin Fermentation Products in a Continuous Flow Column System.” Journal of Environ. Engr., June 665-673. This culture had grown for several years on PCE, anaerobic basal salts medium, Wolfe's vitamin solution and various electron donors including lactate (1-2 millimolar (mM)), formate (4 mM) and chitin using the Volatile Interface Transfer Apparatus (VITA) reactor system at the University of Illinois. Brennan, R. A., and Sanford, R. A. (2002). “Continuous steady-state method using Tenax for delivering tetrachloroethene to chlororespiring bacteria.” Appl. Environ. Microbiol., 68(3), 1464-1467. […] Using 16S rRNA gene-specific primers, both Dehalococcoides and Dehalobacter spp. were detected. Quantitative real-time PCR has been used to determine that approximately 1.65×10^7 Dehalococcoides gene copies were present per ml of culture.
For purpose of this disclosure, each bottle may be started with a certain amount of PCE. At subsequent times each bottle may be sampled for the degradation daughter products of PCE, namely trichloroethene (TCE), cis-dichloroethene (DCE), vinyl chloride (VC) and ethene, etc. Trans-DCE and 1,1-DCE are also daughter products of PCE, but they may not be detectable under the conditions disclosed here.
The rate of degradation may be determined by calculating the number of pmoles of chloride ions removed from PCE and subsequently from the amounts of the daughter products generated. The calculation may be performed as follows: Chloride (μmoles)=[…]−4×PCE (μmoles)−3×TCE (pmoles)−2×DCE (μmoles)−VC (μmoles)
The alternative chloride calculation is: Chloride (μmoles)=TCE (μmoles)+2×DCE (μmoles)+3×VC (μmoles)+4×Ethene (μmoles)
Next, the dechlorination rate may be determined for each bottle at each time by dividing the Chloride generated by the time (days). The data may be then normalized to the lactate control by taking the ratio of Chloride Rate (pmoles/day) and the Lactate Control Chloride Rate (pmoles/day). This ratio is called Relative Rate and is dimensionless.
As shown in the Examples, a paired t-test has been conducted to calculate the probability that the Relative Rate of one group (i.e. with Nutrient) is greater than the other group (i.e. without Nutrient). The null hypothesis is that the underlying means of the two paired groups are equal. The Probability that one group has higher Relative Rates than the other group is shown in various tables in the Examples.
The following components were used in the system for bioremediating contaminated ground water microcosms in Examples 2-8: • 160 milliliter (ml) stoppered serum bottles • 100 ml of anaerobic culture medium, groundwater containing an excess of bioavailable phosphorus and nitrogen at 0.5 mM Phosphate and 1 mM ammonium degassed with a nitrogen sparge • Nominally 1 gram of limestone • 19.54 micromoles (pmoles) Perchloroethene (PCE) • An excess of various electron donors were utilized • 3 ml of inoculum containing dechlorinating bacteria known to convert PCE to ethene. […]

With CC(O)C(=O)[O-].[Na+] (centres unmarked) [Lactate Control, sodium lactate] the “Average Relative Rate” value was 1.00, the “Cl^− Rate ± s.d.” value (0 days) was 0.00 ± 0.00 µmol and the “Cl^− ± s.d.” value (0 days) was 0.00 ± 0.00 µmol. The “DCE ± s.d.” value (0 days) was 0.00 ± 0.00 µmol, the “Ethene ± s.d.” value (0 days) was 0.00 ± 0.00 µmol and the “PCE ± s.d.” value (0 days) was 19.54 ± 0.00 µmol. The “TCE ± s.d.” value (0 days) was 0.00 ± 0.00 µmol, the “VC ± s.d.” value (0 days) was 0.00 ± 0.00 µmol and the “Cl^− Rate ± s.d.” value (14 days) was 2.58 ± 0.17 µmol. The “Cl^− ± s.d.” value (14 days) was 36.18 ± 2.43 µmol, the “DCE ± s.d.” value (14 days) was 0.42 ± 0.03 µmol and the “Ethene ± s.d.” value (14 days) was 0.00 ± 0.00 µmol. For the same molecule, the “PCE ± s.d.” value (14 days) was 8.45 ± 0.55 µmol, the “TCE ± s.d.” value (14 days) was 2.00 ± 0.04 µmol and the “VC ± s.d.” value (14 days) was 1.33 ± 0.41 µmol. The “Cl^− Rate ± s.d.” value (35 days) was 1.33 ± 0.15 µmol, the “Cl^− ± s.d.” value (35 days) was 46.47 ± 5.25 µmol and the “DCE ± s.d.” value (35 days) was 1.60 ± 0.82 µmol. For the same molecule, the “Ethene ± s.d.” value (35 days) was 0.33 ± 0.29 µmol, the “PCE ± s.d.” value (35 days) was 4.08 ± 0.81 µmol and the “TCE ± s.d.” value (35 days) was 2.77 ± 0.47 µmol. For the same molecule, the “VC ± s.d.” value (35 days) was 3.86 ± 2.11 µmol, the “Cl^− Rate ± s.d.” value (53 days) was 1.06 ± 0.06 µmol and the “Cl^− ± s.d.” value (53 days) was 56.17 ± 3.17 µmol. For the same molecule, the “DCE ± s.d.” value (53 days) was 5.31 ± 1.00 µmol, the “Ethene ± s.d.” value (53 days) was 0.78 ± 0.79 µmol and the “PCE ± s.d.” value (53 days) was 0.33 ± 0.27 µmol. For the same molecule, the “TCE ± s.d.” value (53 days) was 0.52 ± 0.47 µmol, the “VC ± s.d.” value (53 days) was 8.52 ± 6.24 µmol and the “Relative Rate” value (bottle 1, 14 days) was 0.92. For the same molecule, the “Relative Rate” value (bottle 1, 35 days) was 1.11, the “Relative Rate” value (bottle 1, 53 days) was 0.96 and the “Relative Rate” value (bottle 2, 14 days) was 1.02. For the same molecule, the “Relative Rate” value (bottle 2, 35 days) was 1.00, the “Relative Rate” value (bottle 2, 53 days) was 1.06 and the “Relative Rate” value (bottle 3, 14 days) was 1.05. For the same molecule, the “Relative Rate” value (bottle 3, 35 days) was 0.89 and the “Relative Rate” value (bottle 3, 53 days) was 0.98.
